In the experiment the target is human ACC2 (Homo sapiens (Human), UniProt O00763). Description: ACC2 assay, spectrophotometric 384 well assay (NADH-linked kinetic method). In kind it is biochemical. The following applies: human ACC2 construct lacking the 128 N-terminal amino acids; coupled lactate dehydrogenase/pyruvate kinase reaction, 340 nm, 25° C. The procedure, abridged:
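ADP formation was monitored as NADH consumption at 340 nm for 15 min at 25 °C, using baculovirus-expressed human ACC2 missing its first 128 amino acids, with 500 μM ATP and 2000 μM each of acetyl-CoA and NADH (final). IC50 was fitted by non-linear regression on low-control-subtracted slopes.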
Chain of human ACC2 (O00763 129-2458): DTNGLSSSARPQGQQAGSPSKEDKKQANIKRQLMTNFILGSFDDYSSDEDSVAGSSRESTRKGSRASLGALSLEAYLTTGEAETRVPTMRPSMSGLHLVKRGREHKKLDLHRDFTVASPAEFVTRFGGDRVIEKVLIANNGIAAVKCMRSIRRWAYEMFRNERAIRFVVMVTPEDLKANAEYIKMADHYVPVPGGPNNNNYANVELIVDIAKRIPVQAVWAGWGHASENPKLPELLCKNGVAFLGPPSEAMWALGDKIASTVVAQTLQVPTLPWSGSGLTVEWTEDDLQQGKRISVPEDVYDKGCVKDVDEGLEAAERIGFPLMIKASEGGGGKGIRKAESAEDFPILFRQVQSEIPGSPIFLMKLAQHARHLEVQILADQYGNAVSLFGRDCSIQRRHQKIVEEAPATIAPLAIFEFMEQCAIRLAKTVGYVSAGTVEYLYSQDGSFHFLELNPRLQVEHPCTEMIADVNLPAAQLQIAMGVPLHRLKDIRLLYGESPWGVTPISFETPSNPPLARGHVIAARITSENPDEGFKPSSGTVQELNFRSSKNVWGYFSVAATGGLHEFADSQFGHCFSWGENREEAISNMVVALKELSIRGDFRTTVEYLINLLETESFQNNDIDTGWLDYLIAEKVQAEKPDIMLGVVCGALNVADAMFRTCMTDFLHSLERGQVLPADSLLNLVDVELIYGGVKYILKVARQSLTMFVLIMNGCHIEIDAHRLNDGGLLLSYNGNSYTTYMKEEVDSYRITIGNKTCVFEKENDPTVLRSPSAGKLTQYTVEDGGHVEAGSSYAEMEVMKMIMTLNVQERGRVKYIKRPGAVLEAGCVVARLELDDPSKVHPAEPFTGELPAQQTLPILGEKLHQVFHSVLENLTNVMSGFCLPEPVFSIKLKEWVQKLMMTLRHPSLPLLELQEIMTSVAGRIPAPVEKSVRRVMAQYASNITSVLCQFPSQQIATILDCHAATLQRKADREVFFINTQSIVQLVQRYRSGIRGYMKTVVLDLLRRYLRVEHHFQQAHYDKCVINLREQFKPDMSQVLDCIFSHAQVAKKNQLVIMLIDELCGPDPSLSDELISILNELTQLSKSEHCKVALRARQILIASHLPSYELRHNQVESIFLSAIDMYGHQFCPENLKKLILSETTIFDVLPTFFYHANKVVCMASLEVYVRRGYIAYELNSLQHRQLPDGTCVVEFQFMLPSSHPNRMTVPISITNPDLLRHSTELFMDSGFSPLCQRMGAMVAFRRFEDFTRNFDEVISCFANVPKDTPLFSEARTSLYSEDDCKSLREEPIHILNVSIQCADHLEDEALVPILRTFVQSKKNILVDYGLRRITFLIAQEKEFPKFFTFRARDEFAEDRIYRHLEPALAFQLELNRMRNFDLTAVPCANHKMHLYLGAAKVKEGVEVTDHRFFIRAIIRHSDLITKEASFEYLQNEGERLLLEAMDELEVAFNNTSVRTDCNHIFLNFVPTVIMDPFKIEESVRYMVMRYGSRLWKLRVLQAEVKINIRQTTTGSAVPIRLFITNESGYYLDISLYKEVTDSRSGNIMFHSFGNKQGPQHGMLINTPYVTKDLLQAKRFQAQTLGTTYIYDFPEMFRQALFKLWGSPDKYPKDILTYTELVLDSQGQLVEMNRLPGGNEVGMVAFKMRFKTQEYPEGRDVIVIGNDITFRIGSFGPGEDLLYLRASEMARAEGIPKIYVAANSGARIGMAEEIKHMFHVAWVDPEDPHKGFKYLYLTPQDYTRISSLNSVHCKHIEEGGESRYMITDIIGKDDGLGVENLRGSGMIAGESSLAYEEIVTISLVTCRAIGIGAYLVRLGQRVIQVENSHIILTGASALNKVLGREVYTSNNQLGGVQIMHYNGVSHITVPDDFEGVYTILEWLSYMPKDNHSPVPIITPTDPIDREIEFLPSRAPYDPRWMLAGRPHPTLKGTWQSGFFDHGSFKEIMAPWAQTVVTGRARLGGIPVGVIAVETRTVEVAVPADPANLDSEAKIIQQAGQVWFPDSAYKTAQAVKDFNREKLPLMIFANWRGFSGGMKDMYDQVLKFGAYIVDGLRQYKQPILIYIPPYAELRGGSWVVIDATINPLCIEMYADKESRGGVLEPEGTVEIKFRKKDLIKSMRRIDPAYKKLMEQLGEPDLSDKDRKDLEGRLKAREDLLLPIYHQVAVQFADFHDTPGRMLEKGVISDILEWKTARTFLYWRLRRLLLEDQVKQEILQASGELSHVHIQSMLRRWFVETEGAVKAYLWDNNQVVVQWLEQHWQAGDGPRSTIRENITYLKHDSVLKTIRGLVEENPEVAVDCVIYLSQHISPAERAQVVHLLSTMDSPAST
By IC50 is commonly meant the midpoint of a concentration-inhibition curve. `C[C@H](NC(=O)C(C)(C)C)c1ccc(O[C@@H]2CCN(c3cccc(C(F)(F)F)n3)C2)cc1` [Example 5.1, N—((S)-1-(4-((R)-1-(6-(Trifluoromethyl)pyridin-2-yl)pyrrolidin-3-yloxy)phenyl)ethyl) pivalamide] showed an IC50 of 649 nM.
The same measure for `CCNC(=O)N[C@@H](C)c1ccc(OC2CCN(c3ccnc(OCC4CC4)c3)C2)cc1` (stereo partly shown) [Example 3.4]: 75 nM; for `CC(=O)N[C@@H](C)c1ccc(O[C@@H]2CCN(c3ccnc(N4CCC(F)(F)C4)c3F)C2)cc1` [Example 1.110]: 23 nM; for `CC(=O)N[C@@H](C)c1ccc(OC2CCN(c3ncc(OCC(F)(F)F)cc3F)C2)cc1` (stereo partly shown) [Example 1.33]: 504 nM.
`C[C@H](NC(=O)c1cnco1)c1ccc(OC2CCN(c3ccnc(OCC(F)F)c3)C2)cc1` (stereo partly shown) [Example 2.111]: it took 107 nM to reach half-maximal inhibition (IC50).
As to `Cc1[nH]ncc1C(=O)N[C@@H](C)c1ccc(OC2CCN(c3ccnc(OCC4CC4)c3)C2)cc1` (stereo partly shown) [Example 2.84], the IC50 stood at 169 nM.
`C[C@H](NC(=O)C1(C(F)(F)F)CC1)c1ccc(OC2CCN(c3cccc(C(F)(F)F)n3)C2)cc1` (stereo partly shown) [Example 2.37] displayed an IC50 of 247 nM.
In turn, `C[C@H](NC(=O)c1cncs1)c1ccc(OC2CCN(c3ccnc(OCC(F)F)c3)C2)cc1` (stereo partly shown) [Example 2.101] showed an IC50 of 76 nM.
Regarding `CC(=O)N[C@@H](C)c1ccc(O[C@@H]2CCN(c3ccnc(OCC(F)F)c3)C2)cc1` [Example 9.31], it took 90 nM to reach half-maximal inhibition (IC50).
Turning to `CCCN(C)c1nccc(N2CC[C@@H](Oc3ccc([C@H](C)NC(C)=O)cc3)C2)c1OC` [Example 1.129], the IC50 came out at 210 nM.
`CC(=O)N[C@@H](C)c1ccc(OC2CCN(c3cccc(C4CCC4)n3)C2)cc1` (stereo partly shown) [Example 1.86]: it took 89 nM to reach half-maximal inhibition (IC50).
Regarding `CC(=O)N[C@@H](C)c1ccc(O[C@@H]2CCN(c3cccc(N(C)C[C@H]4CCCO4)n3)C2)cc1` [Example 10.45], half-maximal inhibition (IC50) required 165 nM.
`CC(=O)N[C@@H](C)c1ccc(O[C@@H]2CCN(c3ccnc(O[C@@H]4CCOC4)c3)C2)cc1` [Example 9.10] came in with an IC50 of 184 nM.
The same measure for `C[C@H](NC(=O)C(F)(F)F)c1ccc(OC2CCN(c3ccnc(OCC4CC4)c3)C2)cc1` (stereo partly shown) [Example 7.3]: 54 nM; for `CC(=O)Nc1nc(C)c(C(=O)N[C@@H](C)c2ccc(O[C@@H]3CCN(c4ccnc(OCC5CC5)c4)C3)cc2)s1` [Example 1.43]: 59 nM.
The same measure for `C[C@H](NC(=O)c1cncs1)c1ccc(O[C@@H]2CCN(c3ccnc(OCC4CC4)c3)C2)cc1` [Example 9.63]: 55 nM.
In the case of `C[C@H](NC(=O)c1cnn(C)c1Cl)c1ccc(OC2CCN(c3ccnc(OCC4CC4)c3)C2)cc1` (stereo partly shown) [Example 2.69], the IC50 is 281 nM.
`C[C@H](NC(=O)c1cnn(C)c1)c1ccc(OC2CCN(c3ccnc(OCC(F)F)c3)C2)cc1` (stereo partly shown) [Example 2.102] yielded a half-inhibitory concentration (IC50) of 136 nM.
For `CC(=O)N[C@@H](C)c1ccc(O[C@@H]2CCN(c3ccnc(OC4CCOCC4)c3)C2)cc1` [Example 9.22], the IC50 came to 140 nM.
Molecule `CC(C)Oc1cc(N2CCC(Oc3ccc([C@H](C)NC(=O)c4ccns4)cc3)C2)ccn1` (stereo partly shown) [Example 2.6] showed an IC50 of 145 nM.
Molecule `CCOc1cc(N2CCC(Oc3ccc([C@H](C)NC(C)=O)cc3)C2)ccn1` (stereo partly shown) [Example 1.12] returned an IC50 of 265 nM.
In turn, `CC(=O)N[C@@H](C)c1ccc(O[C@@H]2CCN(c3ccnc(OCC4CC4(F)F)c3Cl)C2)cc1` (stereo partly shown) [Example 9.71] had an IC50 of 45 nM.
For the molecule `CC(=O)N[C@@H](C)c1ccc(O[C@@H]2CCN(c3cc(N(C)C)ncc3F)C2)cc1` [Example 10.24], the IC50 is 285 nM.
As for `Cc1cc(CC(=O)N[C@@H](C)c2ccc(OC3CCN(c4ccnc(OCC5CC5)c4)C3)cc2)on1` (stereo partly shown) [Example 2.87], 270 nM corresponded to half-maximal inhibition (IC50).
The same measure for `CC(=O)Nc1cncc(C(=O)N[C@@H](C)c2ccc(OC3CCN(c4ccnc(OC(C)C)c4)C3)cc2)c1` (stereo partly shown) [Example 2.22]: 998 nM; for `CC(=O)N[C@@H](C)c1ccc(O[C@@H]2CCN(c3cccc(N4CCC(C)(C)C4)n3)C2)cc1` [Example 10.48]: 256 nM.
The same measure for `C[C@H](NC(=O)c1cncs1)c1ccc(O[C@@H]2CCN(c3ccc(OCCCF)cn3)C2)cc1` [Example 1.82]: 110 nM; for `CC(C)Oc1cc(N2CCC(Oc3ccc([C@H](C)NC(=O)C(C)F)cc3)C2)ccn1` (stereo partly shown) [Example 2.13]: 798 nM.
Take `CC(=O)N[C@@H](C)c1ccc(O[C@@H]2CCN(c3cccc(N4CCC5(CC5)C4)n3)C2)cc1` [Example 10.32]: half-maximal inhibition (IC50) was put at 245 nM.
Regarding `C[C@H](NC(=O)N(C)C)c1ccc(OC2CCN(c3ccnc(OCC4CC4)c3)C2)cc1` (stereo partly shown) [Example 1.53], the IC50 is 85 nM.
Take `C[C@H](NC(=O)N1CCCC1)c1ccc(OC2CCN(c3ccc(OCC4CC4(F)F)cn3)C2)cc1` (stereo partly shown) [Example 3.18]: the midpoint of inhibition, the IC50, lay at 423 nM.
Molecule `CC(O)C(=O)N[C@@H](C)c1ccc(OC2CCN(c3cccc(C(F)(F)F)n3)C2)cc1` (stereo partly drawn) [Example 6.1, 2-Hydroxy-N—((S)-1-(4-((R)-1-(6-(trifluoromethyl)pyridin-2-yl)pyrrolidin-3-yloxy)phenyl)ethyl)propanamide] had an IC50 of 428 nM.
`C[C@H](NC(=O)C1CCC1)c1ccc(OC2CCN(c3cccc(C(F)(F)F)n3)C2)cc1` (stereo partly shown) [Example 2.48] showed an IC50 of 891 nM.
The same measure for `C[C@H](NC(=O)c1ccon1)c1ccc(OC2CCN(c3cccc(C(F)(F)F)n3)C2)cc1` (stereo partly shown) [Example 2.51]: 128 nM; for `CC(=O)N[C@@H](C)c1ccc(OC2CCN(c3ccc(OC4CCC4)nc3)C2)cc1` (stereo partly shown) [Example 1.21]: 335 nM.
Turning to `CC(=O)N[C@@H](C)c1ccc(O[C@@H]2CCN(c3ccnc(OC4CCCC4)c3Cl)C2)cc1` [Example 9.81], the half-inhibitory concentration (IC50) came out at 53 nM.
The same measure for `COCC(=O)Nc1nc(C)c(C(=O)N[C@@H](C)c2ccc(OC3CCN(c4ccnc(OCC5CC5)c4)C3)cc2)s1` (stereo partly shown) [Example 2.75]: 39 nM; for `CNC(=O)N[C@@H](C)c1ccc(OC2CCN(c3ccc(OCC4CC4(F)F)cn3)C2)cc1` (stereo partly shown) [Example 3.20]: 92 nM.
On to `CC(=O)N[C@@H](C)c1ccc(O[C@@H]2CCN(c3ccnc(N4CCOCC4)c3F)C2)cc1` [Example 10.15], for which the IC50 was determined as 150 nM.
`COc1cc(OCC2CC2)cnc1N1CCC(Oc2ccc([C@H](C)NC(C)=O)cc2)C1` (stereo partly shown) [Example 1.80] gave an IC50 of 484 nM.
In the case of `C[C@H](NC(=O)C1(C)CC1)c1ccc(OC2CCN(c3ccnc(N4CCC(F)(F)C4)c3F)C2)cc1` (stereo partly shown) [Example 2.124], the IC50 was 72 nM.
`CC(=O)N[C@@H](C)c1ccc(O[C@@H]2CCN(c3ccnc(N(C)C(C)C)c3F)C2)cc1` [Example 1.111] yielded an IC50 of 112 nM.
As for `C[C@H](NC(=O)c1cncnc1)c1ccc(OC2CCN(c3ccnc(OCC4CC4)c3)C2)cc1` (stereo partly shown) [Example 2.79], half-maximal inhibition (IC50) was put at 456 nM.
The molecule `CC(=O)N[C@@H](C)c1ccc(OC2CCN(c3nc(C)ccc3F)C2)cc1` (stereo partly shown) [Example 1.44] registered an IC50 of 256 nM.
For `COC[C@H]1CCCN1c1cccc(N2CC[C@@H](Oc3ccc([C@H](C)NC(C)=O)cc3)C2)n1` [Example 10.41], the IC50 is 1020 nM.
Molecule `CCCOc1ccc(N2CCC(Oc3ccc([C@H](C)NC(C)=O)cc3)C2)c(C)n1` (stereo partly shown) [Example 1.37] showed an IC50 of 360 nM.
The same measure for `CC(=O)N[C@@H](C)c1ccc(O[C@@H]2CCN(c3cccc(N(C)C4CCCC4)n3)C2)cc1` [Example 10.29]: 170 nM.
For `CC(=O)N[C@@H](C)c1ccc(O[C@@H]2CCN(c3ccc(Cl)c(C(F)(F)F)n3)C2)cc1` [Example 8.8], the IC50 worked out at 265 nM.
`CCCOc1cc(N2CC[C@@H](Oc3ccc([C@H](C)NC(=O)c4cncs4)cc3)C2)ccn1` [Example 9.64] yielded an IC50 of 35 nM.
The same measure for `CC(=O)N[C@@H](C)c1ccc(O[C@@H]2CCN(c3cccc(N(C)CC4CCOC4)n3)C2)cc1` (stereo partly shown) [Example 10.25]: 331 nM; for `CC(=O)N[C@@H](C)c1ccc(O[C@@H]2CCN(c3cccc(N4CCOCC4C)n3)C2)cc1` (stereo partly shown) [Example 10.49]: 785 nM.
`CC(=O)N[C@@H](C)c1ccc(O[C@@H]2CCN(c3ccnc(OCCC4CC4)c3)C2)cc1` [Example 9.14]: inhibition was half-maximal at 75 nM (IC50).
For the molecule `CC(=O)N[C@@H](C)c1ccc(O[C@@H]2CCN(c3ccc(OCC(F)(F)C(F)F)cn3)C2)cc1` [Example 11.2], the IC50 was 870 nM.
On to `CCN(CCO)c1cccc(N2CC[C@@H](Oc3ccc([C@H](C)NC(C)=O)cc3)C2)n1` [Example 10.43], for which the IC50 came out at 770 nM.
Turning to `CC(=O)N[C@@H](C)c1ccc(O[C@@H]2CCN(c3ccnc(NCC4(O)CCC4)c3Cl)C2)cc1` [Example 10.55], the IC50 turned out to be 57 nM.
For the molecule `CC(=O)N[C@@H](C)c1ccc(O[C@@H]2CCN(c3ccnc(N4CCC(C)(O)C4)c3Cl)C2)cc1` (stereo partly shown) [Example 10.54], the IC50 came to 114 nM.
In turn, `C[C@H](NC(=O)c1cnc(N)o1)c1ccc(OC2CCN(c3ccnc(OCC4CC4)c3)C2)cc1` (stereo partly shown) [Example 2.74] had an IC50 of 359 nM.
Regarding `CCCOc1ccc(N2CCC(Oc3ccc([C@H](C)NC(C)=O)cc3)C2)cn1` (stereo partly shown) [Example 1.4], the IC50 was found to be 193 nM.
For the molecule `CC(=O)N[C@@H](C)c1ccc(OC2CCN(c3cccc(C(C)C)n3)C2)cc1` (stereo partly shown) [Example 1.63], the IC50 is 55 nM.
`CCOc1ccc(N2CC[C@@H](Oc3ccc([C@H](C)NC(C)=O)cc3)C2)c(OC)n1` [Example 1.128] came in with an IC50 of 360 nM.
The same measure for `CC(=O)N[C@@H](C)c1ccc(OC2CCN(c3cccc(C)n3)C2)cc1` (stereo partly shown) [Example 1.18]: 167 nM; for `CC(=O)N[C@@H](C)c1ccc(O[C@@H]2CCN(c3ccnc(OCC(C)C)c3)C2)cc1` [Example 9.2]: 41 nM; for `C[C@H](NC(=O)C1CC1)c1ccc(O[C@@H]2CCN(c3ccnc(OC4CCC4)c3)C2)cc1` [Example 9.41]: 95 nM.
`CCC(=O)N[C@@H](C)c1ccc(OC2CCN(c3ccnc(OCC4CC4)c3)C2)cc1` (stereo partly shown) [Example 2.66] gave an IC50 of 50 nM.
